From US20050038058A1, “Novel compounds and methods for therapy” (Institute of Organic Chemistry and Biochemistry, priority 2001, published 2005)
Converted amounts (≈) assume the structure as drawn.

Tests used:
VZV TK − YS/R = test: Antiviral activity, VZV TK- YS/R, Table 1a; format: cell-based; details: Human alphaherpesvirus 3, read-out: Antiviral Activity EC50 VZV TK − YS/R
VZV TK − 07/1 = test: Antiviral activity, VZV TK- 07/1, Table 1a; format: cell-based; details: Human alphaherpesvirus 3, read-out: Antiviral Activity EC50 VZV TK − 07/1
CMV AD-169 = test: Antiviral activity, CMV AD-169, Table 1a; format: cell-based; details: Human betaherpesvirus 5, AD169
HSV-1 TK- VMW 1837 = test: Antiviral activity, HSV-1 TK- VMW 1837, Table 1a; format: cell-based; details: Human alphaherpesvirus 1, read-out: Antiviral Activity EC50 HSV-1 TK- VMW 1837
HIV-2 = test: Antiviral activity, HIV-2, Table 1a; format: cell-based; details: Human immunodeficiency virus 2
HSV-1 (KOS) = test: Antiviral activity, HSV-1 (KOS), Table 1a; format: cell-based; details: Human alphaherpesvirus 1
HSV-2 (G) = test: Antiviral activity, HSV-2 (G), Table 1a; format: cell-based; details: Human alphaherpesvirus 2
CMV Davis = test: Antiviral activity, CMV Davis, Table 1a; format: cell-based; details: Human betaherpesvirus 5
VZV TK + OKA = test: Antiviral activity, VZV TK+ OKA, Table 1a; format: cell-based; details: Human alphaherpesvirus 3, read-out: Antiviral Activity EC50 VZV TK + OKA
VZV TK + YS = test: Antiviral activity, VZV TK+ YS, Table 1a; format: cell-based; details: Human alphaherpesvirus 3
MSV = test: Antiviral activity, MSV, Table 1a; format: cell-based
HIV-1 = test: microbe, parasite or virus in culture; details: Human immunodeficiency virus 1, read-out: Antiviral Activity EC50 HIV-1
HIV-1(IIIB) = test: HIV-1(IIIB)-induced cytopathicity in CEM cell cultures; format: cell-based; details: for EC50: Human immunodeficiency virus 1, CCRF-CEM, read-out: EC50 HIV-1 (CEM)
Text: Viruses. The origins of MSV, HIV type 1 (HIV-1) (strain IIIB and Ba-L), HIV-2 (strain ROD) and FIV (strain Petaluma) have been described previously (Balzarini et al., AIDS 5: 21-28, 1991; De Clercq et al., Proc. Soc. Exp. Biol. Med. 137:590-594, 1971; Egberink et al., Proc. Natl. Acad. Sci. 87:3087-3091, 1990; Hartmann et al., Antiviral Chem. Chemother. 5:13-19, 1994; Popovic et al., Science 224:497-500, 1984). HIV-1(IIIB) and HIV-2(ROD) stocks were obtained from supernatants of virus-infected MT-4 cell cultures. HIV-1BaL was expanded in human primary M/M, whose supernatants were collected, filtered and stored at −80° C. before use. Characteristics of viral stocks used for this study were 2.1×10^8 HIV-RNA genomes/ml (corresponding to 35 ng of p24 antigen) and 5,000 tissue culture infectious doses 50% per ml (TCID50/ml) as assessed by virus titration in other primary M/M cultures. The isolation and characterization of the clinical HIV-1 isolates L1S, L6S and L6S/PMEA has been reported (Thormar et al., Proc. Natl. Acad. Sci. USA 93:3283-3287, 1995; Van Laethem et al., AIDS 15:553-561, 2001). […] HIV-1/L6S/PMEA is the clinical isolate HIV-1/L6S that has been isolated after culturing the virus for 11 passages in the presence of increasing concentrations of PMEA (adefovir).
In vitro antiviral assays. The activity against HIV-1- and HIV-2-induced cytopathicity was examined in MT-4 cell cultures at day 5 post infection and based on the determination of cell viability by trypan blue dye staining or in CEM cell cultures at day 4 to 5 post infection and based on the microscopical examination of virus-induced giant cell formation. HIV-1 and HIV-2 were added at 100 CCID50 to the cell cultures.

[1] = Inhibition of CEM cell growth (cytostatic activity); format: cell-based; details: human, CEM cells, 50% cytostatic concentration, CEM cell proliferation; Table 1; read-out: CC50 (CEM)
Experimental: (§1) Cytostatic and antimetabolic effect of acyclic nucleoside phosphonates in vitro. The assays to examine the inhibition of CEM cell growth by the test compounds have been described previously (Balzarini et al., AIDS 5:21-28, 1991). The 50% cytostatic concentration (CC50) was defined as the concentration of compound that reduced the number of living cells by 50% . To measure MT-4 cell toxicity of the test compounds, 5×10^4 MT-4 cells were incubated in the wells of 96-well microplates in the presence or absence of different concentrations of the test compounds for 5 days at 37° C. The CC50 was then calculated from the number of living cells counted under a microscope by the trypan blue exclusion method.

CEM cells = test: as above; format: cell-based; details: 50% cytostatic concentration, CEM cell proliferation; Table 1
Experimental: as §1

[2] = HIV-1(IIIB)-induced cytopathicity in CEM cell cultures, Table 1

Compound	EC50 (VZV TK − YS/R) [mg/L]	EC50 (VZV TK − 07/1) [mg/L]	EC50 (CMV AD-169) [mg/L]	EC50 (HIV-2) [mg/L]	EC50 (HSV-1 (KOS)) [mg/L]	EC50 (HSV-2 (G)) [mg/L]	EC50 (CMV Davis) [mg/L]	EC50 (VZV TK + OKA) [mg/L]	EC50 (VZV TK + YS) [mg/L]	EC50 (MSV) [mg/L]	EC50 (HIV-1) [mg/L]	Antiretroviral (anti-HIV-1) activity in CEM cell cultures, in words (HIV-1(IIIB))	EC50 (HIV-1(IIIB); [2]) [mg/L]	CC50 [1] [mg/L]	further results
Cc1cc(OCCOCP(=O)(O)O)nc(N)n1 [Compound H-3453]	> 50	> 50	> 50	> 100	> 400	> 400	> 50	> 50	> 50	89.4 ± 37.6 (≈ 340 µM)	> 100	–	–	–	EC50 (HSV-1 TK- VMW 1837): > 400 mg/L
Nc1cc(OCCOCP(=O)(O)O)ncn1 [Compound H-3418]	> 50	> 50	> 50	> 100	> 16	> 16	> 50	> 50	> 50	12.6 ± 7.6 (≈ 50.6 µM)	> 100	–	–	–	EC50 (HSV-1 TK- VMW 1837): > 16 mg/L
Cc1cc(OCCOCP(=O)(O)O)nc(N)n1 [Compound 9, 2-amino-4-methyl-6-[2-(phosphonomethoxy)ethoxy]pyrimidine]	–	–	–	–	–	–	–	–	–	–	–	complete annihilation of the antiretroviral activity	> 100	> 100	–
CN(C)c1cc(OCCOCP(=O)(O)O)nc(N)n1 [Compound 6, 2-amino-4-dimethylamino-6-[2-(phosphonomethoxy)-ethoxy]pyrimidine]	–	–	–	–	–	–	–	–	–	–	–	complete annihilation of the antiretroviral activity	> 100	> 100	–
Nc1nc2c(ncn2CCOCP(=O)(O)O)c(=O)[nH]1 [PMEG, reference compound]	–	–	–	–	–	–	–	–	–	–	–	–	–	–	EC50 as such (HIV-1(IIIB); HIV-1 (IIIB) in CEM, no addition, Table 3): >0.05 mg/L; EC50 upon addition of Ade (100 μM) (HIV-1(IIIB); HIV-1 (IIIB) in CEM, Ade 100 μM): >0.05 mg/L; EC50 upon addition of Ado (400 μM) (HIV-1(IIIB); HIV-1 (IIIB) in CEM, Ado 400 μM): >0.05 mg/L; EC50 upon addition of Guo (10 μM) (HIV-1(IIIB); HIV-1 (IIIB) in CEM, Guo 10 μM): >0.05 mg/L; EC50 upon addition of dCyd (1 mM) (HIV-1(IIIB); HIV-1 (IIIB) in CEM, dCyd 1 mM): >0.25 mg/L; EC50 upon addition of dThd (10 μM) (HIV-1(IIIB); HIV-1 (IIIB) in CEM, dThd 10 μM): >0.25 mg/L
CSc1nc(N)cc(OCCOCP(=O)(O)O)n1 [Compound 8, 4-amino-2-methylsulfanyl-6-[2-(phosphonomethoxy)ethoxy]pyrimidine]	–	–	–	–	–	–	–	–	–	–	–	complete annihilation of the antiretroviral activity	> 100	> 100	–
Nc1nc(O)cc(OCCOCP(=O)(O)O)n1 [Compound H-3574]	0.6 (≈ 2.26 µM)	–	14 (≈ 52.8 µM)	–	9.6 (≈ 36.2 µM)	9.6 (≈ 36.2 µM)	16 (≈ 60.3 µM)	1.1	0.9	0.08 (≈ 0.302 µM)	> 0.8	–	–	–	–
Nc1cc(OCCOCP(=O)(O)O)ncn1 [Compound 3, 4-amino-6-[2-(phosphonomethoxy)ethoxy]pyrimidine]	–	–	–	–	–	–	–	–	–	–	–	complete annihilation of the antiretroviral activity	> 100	> 100	–
Nc1nc(NC2CC2)cc(OCCOCP(=O)(O)O)n1 [Compound 7, 2-amino-4-cyclopropylamino-6-[2-(phosphonomethoxy)ethoxy]pyrimi-dine]	–	–	–	–	–	–	–	–	–	–	–	complete annihilation of the antiretroviral activity	–	–	EC50 HIV-1 (CEM) (HIV-1(IIIB); [2]): >100 mg/L; CC50 (CEM) (CEM cells): >100 mg/L
Nc1nc(OCCOCP(=O)(O)O)cc(OCCOCP(=O)(O)O)n1 [Compound H-3444]	> 50	> 50	> 50	80 ± 34.6 (≈ 198 µM)	240 (≈ 595 µM)	> 400	> 50	> 50	> 50	4.26 ± 0.75 (≈ 10.6 µM)	56.7 ± 37.9 (≈ 141 µM)	–	–	–	–
Nc1nc(O)cc(SCCOCP(=O)(O)O)n1 [Compound 5, 2-amino-4-hydroxy-6-{[2-(phosphono-methoxy)ethyl]sulfanyl}pyrimidine]	–	–	–	–	–	–	–	–	–	–	–	completely inactive	> 100	> 100	–
Nc1nc(NC2CC2)cc(OCCOCP(=O)(O)O)n1 [Compound H-3435]	> 50	> 50	> 50	> 100	240 (≈ 789 µM)	> 80	> 50	> 20	> 50	> 40	> 100	–	–	–	–
